Test results taken from patent EP0427799B1, “METHOD AND COMPOUNDS FOR AICA RIBOSIDE DELIVERY AND FOR LOWERING BLOOD GLUCOSE” (GENSIA, INC., priority 1989, dated 1990).

How the values were obtained:
in vivo = experiment: in vivo; set-up: species or system dogs; settings: dog; for AUC / Cmax / Tmax: po
Procedure: The bioavailability of AICA riboside after oral administration of either AICA riboside or one of the AICA riboside prodrugs of the present invention was evaluated in dogs. Plasma concentrations of AICA riboside and intact prodrug were measured using HPLC. (See Dixon, R., et al., Res. Commun. Chem. Path. Pharm. 65:405-408 (1989)). Bioavailability of AICA riboside was evaluated in terms of the time required to reach maximum plasma concentration (Tmax), the maximum concentration achieved (Cmax) and the area under the plasma concentration-time curve (AUC) from time zero to the last measurable plasma concentration. Absolute bioavailability (F%) was calculated by dividing the AUC for AICA riboside following oral administration of the prodrug (or AICA riboside itself) by the AUC following intravenous administration of an equivalent amount of AICA riboside (100% bioavailability).

FDPase [1] = biological target: T1, FDPase (Homo sapiens, UniProt P09467); experiment: Inhibition of liver FDPase by ZMP (IC50); assay type: biochemical; settings: Human liver homogenate supernatant
T1 construct: Liver samples (from the indicated species) were homogenized; from tissue; host or cells: human liver homogenate, 45,000 x g supernatant passed over Sephadex G25
T1 sequence (P09467 2-338 limits assumed): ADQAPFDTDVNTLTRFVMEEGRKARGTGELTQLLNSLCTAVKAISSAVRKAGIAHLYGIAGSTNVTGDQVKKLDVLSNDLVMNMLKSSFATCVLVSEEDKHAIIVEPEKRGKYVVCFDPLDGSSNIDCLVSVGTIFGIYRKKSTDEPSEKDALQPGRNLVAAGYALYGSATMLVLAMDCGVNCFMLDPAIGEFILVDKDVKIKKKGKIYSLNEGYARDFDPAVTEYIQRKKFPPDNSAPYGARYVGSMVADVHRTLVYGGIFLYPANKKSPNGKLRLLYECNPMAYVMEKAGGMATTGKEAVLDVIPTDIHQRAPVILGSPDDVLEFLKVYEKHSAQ
Procedure: (§1) Liver samples (from the indicated species) were homogenized in 20 mM potassium phosphate buffer (pH 7.4) with 100 µM EDTA and 100 µM dithiothreitol. The liver homogenates were centrifuged at 45,000 x/g. The supernatants were passed over a sephadex G25 column and assayed for FDPase activity by the method of Marcus et al (Methods in Enzymology 90: 352-356 (1982)) in the presence of ZMP over a range of concentration and in the absence of ZMP. The IC50 value was defined as the concentration of ZMP, which inhibited 50 percent of the baseline FDPase activity under the assay conditions.

FDPase [2] = biological target: T2, FDPase (Mus musculus, UniProt Q9QXD6); experiment: Inhibition of liver FDPase by ZMP (IC50); assay type: biochemical; settings: Mouse liver homogenate supernatant
T2 construct: Liver samples (from the indicated species) were homogenized; from tissue; host or cells: mouse liver homogenate, 45,000 x g supernatant passed over Sephadex G25
T2 sequence (Q9QXD6 2-338 limits assumed): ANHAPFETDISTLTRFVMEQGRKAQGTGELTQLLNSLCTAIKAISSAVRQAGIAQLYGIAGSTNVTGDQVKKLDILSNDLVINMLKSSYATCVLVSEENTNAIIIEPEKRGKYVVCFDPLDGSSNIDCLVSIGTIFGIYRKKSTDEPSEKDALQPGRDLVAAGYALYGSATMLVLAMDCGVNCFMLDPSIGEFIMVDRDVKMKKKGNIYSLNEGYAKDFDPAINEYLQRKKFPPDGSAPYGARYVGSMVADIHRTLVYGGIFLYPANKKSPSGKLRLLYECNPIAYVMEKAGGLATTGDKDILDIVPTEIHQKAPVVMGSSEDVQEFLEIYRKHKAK
Procedure: as §1

FDPase [3] = biological target: T3, FDPase (Oryctolagus cuniculus, UniProt P00637); experiment: Inhibition of liver FDPase by ZMP (IC50); assay type: biochemical; settings: Rabbit liver homogenate supernatant
T3 construct: Liver samples (from the indicated species) were homogenized; from tissue; host or cells: rabbit liver homogenate, 45,000 x g supernatant passed over Sephadex G25
T3 sequence (P00637 2-338 limits assumed): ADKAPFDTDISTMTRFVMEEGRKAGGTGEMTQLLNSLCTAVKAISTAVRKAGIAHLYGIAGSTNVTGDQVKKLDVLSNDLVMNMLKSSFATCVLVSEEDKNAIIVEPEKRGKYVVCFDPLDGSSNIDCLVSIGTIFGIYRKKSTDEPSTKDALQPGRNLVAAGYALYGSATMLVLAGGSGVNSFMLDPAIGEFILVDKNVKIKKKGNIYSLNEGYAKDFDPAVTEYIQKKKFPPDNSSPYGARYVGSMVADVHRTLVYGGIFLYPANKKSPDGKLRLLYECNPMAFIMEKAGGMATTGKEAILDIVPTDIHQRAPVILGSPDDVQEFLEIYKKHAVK
Procedure: as §1

FDPase [4] = biological target: T4, FDPase (Rattus norvegicus, UniProt P19112); experiment: Inhibition of liver FDPase by ZMP (IC50); assay type: biochemical; settings: Rat liver homogenate supernatant
T4 construct: Liver samples (from the indicated species) were homogenized; from tissue; host or cells: rat liver homogenate, 45,000 x g supernatant passed over Sephadex G25
T4 sequence (P19112 2-363 limits assumed): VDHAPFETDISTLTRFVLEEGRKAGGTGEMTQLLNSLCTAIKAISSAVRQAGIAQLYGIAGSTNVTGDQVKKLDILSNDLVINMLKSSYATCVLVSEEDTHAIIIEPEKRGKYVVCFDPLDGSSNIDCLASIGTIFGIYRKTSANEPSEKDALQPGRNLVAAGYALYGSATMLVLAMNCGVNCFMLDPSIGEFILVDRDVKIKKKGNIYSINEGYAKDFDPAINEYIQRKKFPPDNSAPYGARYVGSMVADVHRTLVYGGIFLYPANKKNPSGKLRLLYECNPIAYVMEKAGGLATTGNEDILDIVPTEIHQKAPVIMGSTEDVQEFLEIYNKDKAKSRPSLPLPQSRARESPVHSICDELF
Procedure: as §1

FDPase [5] = experiment: Inhibition of liver FDPase by ZMP (IC50); assay type: biochemical
Procedure: as §1

[6] = biological target: T5, fructose diphosphatase ("FDPase") (Oryctolagus cuniculus, UniProt P00637); experiment: Inhibition of fructose-1,6-diphosphatase from rabbit liver; assay type: biochemical
T5 construct: fructose -1,6- diphosphatase from rabbit liver (Sigma); purchased Sigma; host or cells: rabbit liver (enzyme isolated from tissue)
T5 sequence (P00637 2-338 limits assumed): as the sequence (P00637 2-338 limits assumed) above
Text: Activity was expressed as a velocity (rate of conversion of substrate).

adenosine kinase = adenosine kinase (Homo sapiens, UniProt P55263); experiment: Inhibition of adenosine kinase; assay type: biochemical
Sequence of adenosine kinase (P55263 whole entry, species assumed): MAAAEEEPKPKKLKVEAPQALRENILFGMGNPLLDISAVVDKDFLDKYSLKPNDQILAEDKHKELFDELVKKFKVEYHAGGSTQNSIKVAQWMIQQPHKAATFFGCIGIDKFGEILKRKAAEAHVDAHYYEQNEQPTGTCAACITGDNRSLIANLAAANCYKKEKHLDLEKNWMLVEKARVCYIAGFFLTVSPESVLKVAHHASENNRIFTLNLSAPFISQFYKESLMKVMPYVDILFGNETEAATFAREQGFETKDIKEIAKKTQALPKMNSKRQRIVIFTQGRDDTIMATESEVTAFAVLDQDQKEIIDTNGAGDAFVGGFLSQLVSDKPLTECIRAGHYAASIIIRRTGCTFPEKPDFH

plasma glucose = experiment: Plasma glucose after adenosine and adenosine receptor agonists I.P.; assay type: in vivo; settings: administered I.P. in either rats or mice
Text: This leads to investigation of the mechanism of AICA riboside induced hypoglycemia. […] This adenosine induced hyperglycemia is reversed by adenosine receptor antagonists (theophylline and sulphophenyltheophylline). Additionally, the AICA riboside-induced hypoglycemia is not blocked by theophylline. It is therefore concluded that the AICA riboside effect on plasma glucose is not mediated by adenosine. […] (See Figure 13).

ischemic heart tissue = experiment: Adenosine, AICA riboside and ZMP levels in ischemic heart tissue; assay type: in vivo, rats; settings: for adenosine concentrations during net ATP breakdown: rat heart ischemia model
Procedure: Prodrug compounds of the present invention and AICA riboside were tested for their activity in enhancing the production of adenosine and increasing production of AICA riboside from ZMP in ischemic heart tissue in rats.
Samples of heart tissue after ischemia were analyzed for nucleoside and nucleotide levels. Samples were measured for adenosine, AICA riboside and ZMP concentrations by HPLC.

HTL-induced seizures = experiment: Inhibition of HTL-induced seizures; assay type: in vivo; settings: mice
Procedure: Compounds were tested for their activities in inhibiting HTL-induced seizures in rats.
Animals used were male Swiss Webster mice weighing 21-30 grams (Charles River Breeding Labs, Wilmington, MA). All animals were adapted to the laboratory for at least 5 days prior to use.
All solutions to be injected were prepared as a single injection cocktail at a concentration such that 1 ml per 100 g of body weight yielded the desired dose. The solutions were compounded as follows: Homocysteine Thiolactone - HCl (HTL-HCl) (Sigma Chemical Company, St. Louis, MO) was dissolved in distilled water and the pH adjusted to 6.7 with NaOH. Pentylenetetrazol (PTZ) was dissolved in 0.9% saline. Prodrug compounds or AICA riboside (Sigma) when used alone was dissolved in distilled water. All solutions containing Mioflazine (Janssen Pharmaceuticals) were prepared at a final DMSO concentration of 10-15% as were the Dipyridamole (Sigma) solutions. N-ethylcarboxamide adenosine, NECA (Sigma) and Flunitrazepam (Hoffman La Roche) injections were prepared in a final ethanol concentration of 0.2%. In all cases carrier control solutions of carrier were injected that were matched for both tonicity and solvents to the test solutions. All test and control solutions were injected via a bolus, I.P., using a 27 gauge needle. HTL and PTZ were injected subcutaneously in the upper back of the animal. […]

PTZ induced seizures = experiment: Inhibition of PTZ-induced seizures; assay type: in vivo; settings: mice
Procedure: All solutions to be injected were prepared as a single injection cocktail at a concentration such that 1 ml per 100 g of body weight yielded the desired dose. The solutions were compounded as follows: Homocysteine Thiolactone - HCl (HTL-HCl) (Sigma Chemical Company, St. Louis, MO) was dissolved in distilled water and the pH adjusted to 6.7 with NaOH. Pentylenetetrazol (PTZ) was dissolved in 0.9% saline. Prodrug compounds or AICA riboside (Sigma) when used alone was dissolved in distilled water. All solutions containing Mioflazine (Janssen Pharmaceuticals) were prepared at a final DMSO concentration of 10-15% as were the Dipyridamole (Sigma) solutions. N-ethylcarboxamide adenosine, NECA (Sigma) and Flunitrazepam (Hoffman La Roche) injections were prepared in a final ethanol concentration of 0.2%. In all cases carrier control solutions of carrier were injected that were matched for both tonicity and solvents to the test solutions. All test and control solutions were injected via a bolus, I.P., using a 27 gauge needle. HTL and PTZ were injected subcutaneously in the upper back of the animal.
Animals were preinjected with either control solution containing only carrier or test solution containing candidate compound (prodrug or AICA riboside) and carrier in groups of 6-8 per test solution or control. […]

[7] = Blood pressure and heart rate in rats; assay type: in vivo
Text: (§2) We have expanded this work on AICA riboside and S-AICA riboside homocysteine to examine other known adenosine kinase inhibitors as adenosine releasing agents. The flux (substrate made into product per unit of time), through adenosine kinase under physiological conditions is low; substrate metabolism is low partly due to low substrate availability. However, during net ATP catabolism, substrate availability (i.e. adenosine concentration) dramatically increases. […] (See Figure 15).

cell culture = experiment: Adenosine concentrations in cell culture during net ATP breakdown; assay type: cell-based
Text: as §2

[8] = Enhanced oral bioavailability: tissue ZMP levels after gavage; assay type: in vivo, Sprague-Dawley rats
Procedure: AICA riboside was administered to Sprague-Dawley rats at a dose of 250 mg/kg or 500 mg/kg, prodrug compounds of the present invention were administered at an equal molar dose.
At 15, 30, 60 and 120 minutes after gavage, the animals were sacrificed. The tissues were obtained and frozen immediately for nucleoside and nucleotide analysis. The tissue samples obtained were liver, heart, brain and whole blood. After initial freezing in liquid nitrogen, the tissue samples were extracted with trichloroacetic acid and neutralized with alamine freon. The tissue samples were evaluated by HPLC on a Whatman Partsil-10 (SAX) column for nucleosides and bases as described in Example 6. […] Tests were run with 8 rats.
Figures 5(a) and (b) show ZMP concentrations in rat liver at doses of a molar equivalent of 250 mg/kg and 500 mg/kg AICA riboside.

blood glucose = settings: several animal species, including man; cited from earlier work

**Q.** What does the source list for `CC(C)C(=O)OC[C@H]1O[C@@H](n2cnc(C(N)=O)c2N)[C@H](O)[C@@H]1O` [Compound 10, 5'-isobutyryl-AICA riboside]?
**A.** F (in vivo): 60%; AUC (in vivo): 4.9 µg·h/mL; Cmax (in vivo): 5.0 µg/mL; Tmax (in vivo): 0.75 h

**Q.** Which IC50 (FDPase [1]) does the source give for `NC(=O)c1ncn([C@@H]2O[C@H](COP(=O)(O)O)[C@@H](O)[C@H]2O)c1N` [ZMP, AICA riboside-5'-monophosphate] here?
**A.** 48 µM

**Q.** And the IC50 (FDPase [2])?
**A.** 150 µM

**Q.** What about the IC50 (FDPase [3]) of the same compound?
**A.** 41 µM

**Q.** And the IC50 (FDPase [4])?
**A.** 375 µM

**Q.** And the IC50 (FDPase [5]; Gerbil liver homogenate supernatant)?
**A.** 50 µM

**Q.** What about the IC50 (FDPase [5]; Guinea Pig liver homogenate supernatant) of the same compound?
**A.** 12 µM

**Q.** And the Ki [6]?
**A.** ~40 µM

**Q.** Which “inhibition of adenosine kinase” value (adenosine kinase) does the source give for `NC(=O)c1ncn(C2OC(CSCCC(N)C(=O)O)C(O)C2O)c1N` (stereo not shown) [S-AICA riboside homocysteine, S-AICA ribosyl homocysteine] here?
**A.** more potent

**Q.** With `Nc1ncnc2c1ncn2[C@@H]1O[C@H](CO)[C@@H](O)[C@H]1O` [adenosine, 9-β-D-ribofuranosyladenine] as the compound, how does the “increases in plasma glucose (hyperglycemia)” value (from here on “increases in plasma glucose”) (plasma glucose) read?
**A.** 200-300%

**Q.** Which “adenosine concentrations during net ATP breakdown” value (ischemic heart tissue) does the source give for `NC[C@H]1O[C@@H](n2cnc3c(N)ncnc32)[C@H](O)[C@@H]1O` [5'-amino-5'-deoxyadenosine] here?
**A.** increased adenosine concentrations

**Q.** What about the “activity against HTL-induced seizures” value (HTL-induced seizures) of the same compound?
**A.** observed to prevent HTL-induced seizure

**Q.** And the “activity against PTZ induced seizures” value (PTZ induced seizures)?
**A.** effective in blocking pentylene-tetrazole (PTZ) induced seizures

**Q.** What about the “changes in blood pressure or heart rate” value [7] of the same compound?
**A.** did not produce any significant changes in blood pressure or heart rate

**Q.** What about the “adenosine concentrations during net ATP breakdown” value (cell culture) of the same compound?
**A.** increased adenosine concentrations

**Q.** With `CCNC(=O)[C@H]1O[C@@H](n2cnc3c(N)ncnc32)[C@H](O)[C@@H]1O` [N-ethylcarboxamide adenosine] as the compound, how does the “increases in plasma glucose” value (plasma glucose) read?
**A.** 200-300%

**Q.** For `CC(C)(C)C(=O)OC[C@H]1O[C@@H](n2cnc(C(N)=O)c2N)[C@H](O)[C@@H]1O` [Compound 11, 5'-pivalyl-AICA riboside], which F (in vivo) is on record?
**A.** 44%

**Q.** And the AUC (in vivo)?
**A.** 3.7 µg·h/mL

**Q.** What about the Cmax (in vivo) of the same compound?
**A.** 3.2 µg/mL

**Q.** And the Tmax (in vivo)?
**A.** 1.0 h

**Q.** Which “increases in plasma glucose” value (plasma glucose) does the source give for `OC[C@H]1O[C@@H](n2cnc3c(NC4CCCCC4)ncnc32)[C@H](O)[C@@H]1O` [cyclohexyladenosine] here?
**A.** 200-300%

**Q.** What does the source list for `CC(=O)OC[C@H]1O[C@@H](n2cnc(C(N)=O)c2N)[C@H](OC(C)=O)[C@@H]1OC(C)=O` [Compound C1, 2',3',5'-triacetyl AICA riboside]?
**A.** F (in vivo): 39%; AUC (in vivo): 3.2 µg·h/mL; Cmax (in vivo): 2.2 µg/mL; Tmax (in vivo): 1.5 h

**Q.** For `Nc1ncnc2c1c(I)cn2[C@@H]1O[C@H](CO)[C@@H](O)[C@H]1O` [5-iodotubercidin], which “adenosine concentrations during net ATP breakdown” value (ischemic heart tissue) is on record?
**A.** increased adenosine concentrations

**Q.** And the “adenosine concentrations during net ATP breakdown” value (cell culture)?
**A.** increased adenosine concentrations

**Q.** Which results are given for `CC(C)COC(=O)O[C@H]1[C@@H](O)[C@H](n2cnc(C(N)=O)c2N)O[C@@H]1CO` [Prodrug A, 5-amino-3'-(2-methyl-1-propoxycarbonyl)-1-β-D-ribofuranosyl-imidazole-4-carboxamideie]?
**A.** potency in enhancing adenosine production relative to AICA riboside (ischemic heart tissue; ischemic heart model, molar basis): about 30%; Tissue Concentration Adenosine (ischemic heart tissue; ischemic rat heart tissue, Prodrug A at dose equimolar to AICA riboside): 553 ± 46 nmol/g; Tissue Concentration AICA Riboside (ischemic heart tissue; ischemic rat heart tissue, equimolar doses): 592 ± 55 nmol/g; ZMP accumulation in the liver relative to AICA riboside ([8]; after an equimolar gavage): 5 times; oral bioavailability as evidenced by ZMP levels in liver, whole blood and heart ([8]; rats, gavage, dose equimolar to AICA riboside): increased oral bioavailability; activity against HTL-induced seizures (HTL-induced seizures): improved anticonvulsant activity

**Q.** Which “dose lowering blood glucose” value (blood glucose) does the source give for `O=C[C@H](O)[C@H](O)[C@H](O)CO` [Ribose] here?
**A.** about 1000 mg/kg
